The values below come from ChEMBL document CHEMBL3217466, “Synthesis and biological activity of hydroxybenzylidenyl pyrrolidine-2,5-dione derivatives as new potent inhibitors of tyrosinase” (Medchemcomm, 2011).

Series [1] addresses T1, Tyrosinase (Mus musculus) (UniProt P11344).
T1 sequence (whole entry): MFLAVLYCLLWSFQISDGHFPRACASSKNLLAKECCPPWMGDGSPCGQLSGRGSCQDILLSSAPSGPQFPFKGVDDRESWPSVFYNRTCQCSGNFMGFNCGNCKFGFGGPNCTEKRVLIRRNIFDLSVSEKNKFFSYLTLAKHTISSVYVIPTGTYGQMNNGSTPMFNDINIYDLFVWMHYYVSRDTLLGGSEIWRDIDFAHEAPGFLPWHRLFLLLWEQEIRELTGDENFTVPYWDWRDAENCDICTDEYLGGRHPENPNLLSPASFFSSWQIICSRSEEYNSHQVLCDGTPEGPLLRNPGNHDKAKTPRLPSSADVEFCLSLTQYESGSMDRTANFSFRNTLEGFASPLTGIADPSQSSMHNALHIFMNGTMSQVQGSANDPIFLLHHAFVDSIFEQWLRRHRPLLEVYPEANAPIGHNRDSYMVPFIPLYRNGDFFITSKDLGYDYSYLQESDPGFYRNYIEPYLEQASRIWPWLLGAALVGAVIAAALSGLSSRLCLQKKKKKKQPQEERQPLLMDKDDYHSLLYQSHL
Put plainly: Inhibition of tyrosinase in mouse B16F10 cells assessed as rate of L-DOPA oxidation at 2.5 uM after 24 hrs by ELISA in presence of alpha-MSH (reference value: […]%). It counts as cell-based. Also noted: scale not given: the % may be the effect or the level left. The conditions noted are these: B16-F10. (An ELISA detects its analyte on a solid surface through an enzyme-linked reagent.)

Series [2] concerns B16-F10. Put plainly: Inhibition of melanogenesis in mouse B16F10 cells assessed as melanin content at 1 uM after 24 hrs in presence of alpha-MSH (reference value: 241.87%). It counts as functional. Also noted: scale not given: the % may be the effect or the level left.
The target in series [3] is T1, Tyrosinase (Mus musculus). Kind of series: Inhibition of tyrosinase in mouse B16F10 cells assessed as rate of L-DOPA oxidation at 10 uM after 24 hrs by ELISA in presence of alpha-MSH (reference value: […]%). In kind it is cell-based. Also noted: scale not given: the % may be the effect or the level left. The conditions noted are these: B16-F10.
A short description of series [4]: Cytotoxicity against mouse B16F10 cells assessed as cell viability at 2.5 uM after 48 hrs by MTT assay. In kind it is cell-based, B16-F10. The conditions noted are these: read-out: Activity. In general terms: Formazan colour is commonly taken as a measure of viable cells.
The target in series [5] is T1, Tyrosinase (Mus musculus). Put plainly: Inhibition of tyrosinase in mouse B16F10 cells assessed as rate of L-DOPA oxidation at 0.2 uM after 24 hrs by ELISA in presence of alpha-MSH (reference value: […]%). Particulars: B16-F10. Also noted: scale not given: the % may be the effect or the level left. It counts as cell-based.
The nature of series [6]: Cytotoxicity against mouse B16F10 cells assessed as cell viability at 1 uM after 48 hrs by MTT assay. The conditions noted are these: read-out: Activity. In kind it is cell-based, B16-F10.
The target of series [7] is T2, Tyrosinase (Agaricus bisporus, UniProt O42713).
T2 sequence (O42713 whole entry): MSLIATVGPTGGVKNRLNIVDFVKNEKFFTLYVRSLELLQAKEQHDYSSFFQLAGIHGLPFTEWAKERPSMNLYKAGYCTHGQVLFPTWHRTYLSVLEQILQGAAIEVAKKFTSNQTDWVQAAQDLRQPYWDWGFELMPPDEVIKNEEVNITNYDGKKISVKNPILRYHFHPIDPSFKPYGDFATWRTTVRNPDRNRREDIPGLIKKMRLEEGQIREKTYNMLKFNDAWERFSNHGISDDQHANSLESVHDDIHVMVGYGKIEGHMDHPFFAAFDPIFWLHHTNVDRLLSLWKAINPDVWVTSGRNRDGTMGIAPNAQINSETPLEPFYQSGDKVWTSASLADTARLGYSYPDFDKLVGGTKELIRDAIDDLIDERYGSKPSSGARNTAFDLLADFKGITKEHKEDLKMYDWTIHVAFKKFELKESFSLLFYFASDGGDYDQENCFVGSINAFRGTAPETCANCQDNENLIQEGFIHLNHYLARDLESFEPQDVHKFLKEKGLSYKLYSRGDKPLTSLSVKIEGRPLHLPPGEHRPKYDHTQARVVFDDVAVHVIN
Kind of series: Competitive inhibition of mushroom tyrosinase assessed as decrease in rate of dopachrome formation using L-tyrosine as substrate at 1.25 uM by Lineweaver-Burk plot analysis.

The nature of series [8]: Cytotoxicity against mouse B16F10 cells assessed as cell viability at 0.2 uM after 48 hrs by MTT assay. In kind it is cell-based, B16-F10. Particulars: read-out: Activity.
Series [9] deals with B16-F10. Put plainly: Inhibition of melanogenesis in mouse B16F10 cells assessed as decrease in melanin content after 24 hrs in presence of alpha-MSH. It counts as functional, cell-based.
For series [10], the target named is T1, Tyrosinase (Mus musculus). Put plainly: Inhibition of tyrosinase in mouse B16F10 cells assessed as rate of L-DOPA oxidation at 1 uM after 24 hrs by ELISA in presence of alpha-MSH (reference value: […]%). In kind it is cell-based. More on the design: scale not given: the % may be the effect or the level left. The conditions noted are these: B16-F10.
In series [11] the target is T1, Tyrosinase (Mus musculus). Put plainly: Inhibition of tyrosinase in mouse B16F10 cells assessed as rate of L-DOPA oxidation at 5 uM after 24 hrs by ELISA in presence of alpha-MSH (reference value: […]%). It counts as cell-based. More on the design: scale not given: the % may be the effect or the level left. Particulars: B16-F10.
Series [12] deals with T2, Tyrosinase. Kind of series: Competitive inhibition of mushroom tyrosinase assessed as decrease in rate of dopachrome formation using L-tyrosine as substrate at 20 uM by Lineweaver-Burk plot analysis.
Series [13] is described as follows: Cytotoxicity against mouse B16F10 cells assessed as cell viability at 10 uM after 48 hrs by MTT assay. In kind it is cell-based, B16-F10. Particulars: read-out: Activity.
Series [14] deals with B16-F10. Kind of series: Inhibition of melanogenesis in mouse B16F10 cells assessed as melanin content at 2.5 uM after 24 hrs in presence of alpha-MSH (reference value: 241.87%). In kind it is functional. Also noted: scale not given: the % may be the effect or the level left.
Series [15] concerns B16-F10. Kind of series: Inhibition of melanogenesis in mouse B16F10 cells assessed as melanin content at 5 uM after 24 hrs in presence of alpha-MSH (reference value: 241.87%). It counts as functional. Also noted: scale not given: the % may be the effect or the level left.
The nature of series [16]: Cytotoxicity against mouse B16F10 cells assessed as cell viability at 5 uM after 48 hrs by MTT assay. In kind it is cell-based, B16-F10. Particulars: read-out: Activity.
Series [17] concerns the target T2, Tyrosinase. Kind of series: Inhibition of mushroom tyrosinase assessed as decrease in dopachrome production using L-tyrosine as substrate by spectrophotometric analysis.
Series [18] concerns B16-F10. Kind of series: Inhibition of melanogenesis in mouse B16F10 cells assessed as melanin content at 0.2 uM after 24 hrs in presence of alpha-MSH (reference value: 241.87%). More on the design: scale not given: the % may be the effect or the level left. In kind it is functional.
The test system of series [19] is B16-F10. Put plainly: Inhibition of melanogenesis in mouse B16F10 cells assessed as melanin content at 10 uM after 24 hrs in presence of alpha-MSH (reference value: 241.87%). It counts as functional. Also noted: scale not given: the % may be the effect or the level left.

With `COc1ccc(/C=C2\CC(=O)NC2=O)cc1O`, the Activity in series [1] stood at 103%; in the series on B16-F10 [2] it was 231.69%; in series [3], 97.1%; in series [5], 224%; in series [10], 177%; in series [11], 101%. In addition, the Activity with B16-F10 [14] is given as 113.11%; in the series on B16-F10 [15] it was 103.74%; in the series on B16-F10 [18], 236.67%; in the series with B16-F10 [19] it was 99.49%. Moreover, in series [4], the viability at 48 h, 2.5 µM was 98.4%. Besides, the viability at 48 h, 1 µM in series [6] amounted to 98.9%. Besides, the results for the Ki on Tyrosinase [7] and on Tyrosinase [12] were 424 nM and 1820 nM, respectively. Besides, in series [8], the viability at 48 h, 0.2 µM stood at 99.5%. In the series with B16-F10 [9], the inhibition entry was “Dose-dependent effect”. The viability at 48 h, 10 µM in [13] turned out to be 97.8%. Moreover, the viability at 48 h, 5 µM in series [16] turned out to be 98.1%. The IC50 (usually the point on the concentration scale where inhibition reaches its midpoint) at Tyrosinase [17] is 2230 nM.
